Assay results published in patent publication US12201632B2, “Levoketoconazole for treatment of congenital adrenal hyperplasia and primary aldosteronism” (Strongbridge Dublin Limited, priority 2018, dated 2025).
Where two headings read alike, the source gives them in different places.

Legend:
HAC15 cells = experiment: Steroid profile by LC/MS-MS in HAC15 cells; type: cell-based, Human; details: 0.5 μM
Protocol: Human adrenocortical carcinoma HAC15 and mouse corticotroph AtT20 cells were used, purchased as a kind gift by Dr. W. Rainey, and obtained from Dr. J. Tooze (European Organization for Molecular Biology), respectively. Both cell lines were cultured in 75 cm^2 flasks at 37° C. in a humidified incubator (Greiner Bio-One, Alphen a/d Rijn, the Netherlands) at 5% CO2. Dulbecco's Modified Eagle Medium F12 containing 5% fetal calf serum was used for HAC15, whereas AtT20 cells were cultured in Dulbecco's minimal essential medium (DMEM) supplemented with 10% fetal calf serum. Both mediums were supplemented with L-glutamine (2 mmol/L) and penicillin (10^5 U/L). Short tandem repeat (str) profiling using a Powerplex Kit (Promega, Leiden, the Netherlands) of HAC15 and AtT20 gave results consistent with the ATCC database, confirming the identity of both cell lines. Medium and supplements were obtained from Invitrogen, Breda, the Netherlands. Once a week, cells were harvested with trypsin (0.05%)-EDTA (0.53 mM) and resuspended in culture medium. Levoketoconazole (COR-003) and racemic ketoconazole (both from Cortendo AB) were dissolved in absolute ethanol (EtOH), according to manufacturer's instructions, and stored at −20° C. at a stock concentration of […]. At the start of each experiment, both drugs were freshly prepared and diluted in EtOH in the correct concentrations. Synacten (synthetic ACTH, Novartis Pharma A.G.) stock concentration was stored at 4° C. and dissolved in culture medium at the day of use. The final concentrations of ACTH were chosen based on a dose-response curve in HAC15 cells and previously reported studies in the literature. For HAC15, 200,000 and 100,000 cells were plated in 0.5 ml medium in 24 well plates for experiments of 1 and 3 days, respectively. For AtT20, cell amounts were 100,000 and 30,000. One day after seeding the HAC15 cells, the medium was refreshed and cells were treated 1 or 3 days in quadruplicate with levoketoconazole or racemic ketoconazole (0.05-5 μM), with or without 10 nM ACTH. To study effects of both compounds on pituitary AtT20 cells, concentrations of 0.1 to 10 μM of both drugs were used. Controls were vehicle treated. […] Media were collected after 1 or 3 days of incubation and stored at −20° C. until analysis. All cell culture experiments were carried out at least twice.
(§1) Cortisol concentrations were measured in the supernatant using a chemiluminescence immunoassay system (Immulite 2000XPi; Siemens DPC Inc., Los Angeles, Calif., USA). In addition, we carried out multi-steroid analysis by liquid chromatography/mass spectrometry (LC/MS-MS) to accurately quantify androstenedione, corticosterone, cortisol, 11-deoxycortisol, DHEA, DHEAS, progesterone, 17-hydroxyprogesterone, and testosterone. Concentrations that were tested on the LC/MS-MS were closest to 50% inhibition or maximal inhibition of cortisol as determined by the immunoassay. Steroids were quantified with respect to a calibration series, with internal standards. Steroids were quantified on a Xevo TQS LC-MS/MS (Waters Chromatography).
(§2) Statistical analysis was performed using Graphpad Prism 6.0 (Graphpad Software, San Diego, CA). Non-linear regression curve fitting program was used to calculate the half maximal inhibitory concentrations (IC50) on cortisol production. Effects of both compounds on the steroid profile were measured as absolute change compared to control and compared using the Student's t-test. When assessing differences between effects of both compounds, the percentage change was evaluated and compared in order to correct for differences in the vehicle treated control cells. Values of P<0.05 were considered statistically significant and data are presented as mean SEM.

[1] = test system: cortisol-producing adrenal adenoma cultures; experiment: Cortisol production in primary cortisol-producing adrenal adenoma cultures; type: cell-based, human; details: Homo sapiens, 72 h, 3 days, read-out: IC50 inhibition of cortisol production
Protocol: (§3) To obtain primary cultures, adrenal specimens (adrenocortical adenomas, adrenal hyperplasias and adrenocortical carcinomas) were collected after adrenalectomy at the department of Surgery, Erasmus University Medical Center, Rotterdam, the Netherlands, between April 2016 and May 2018. The study was conducted under guidelines that have been approved by the Medical Ethics Committee of the Erasmus Medical Center and informed consent was obtained from all patients. Immediately after surgery, specimens were minced into small pieces of 2-3 mm^3, washed in culture medium and centrifuged for 5 minutes at 600 g. The tissue was stored overnight in culture medium at 4° C., where after the tissue was centrifuged again and the supernatant was removed. Fragments were dissociated using 10-25 ml collagenase type 1 (2 mg/ml: Sigma-Aldrich), followed by incubation at 37° C. for up to two hours. Ficoll (GE healthcare) density gradient separation was used once or twice as required in order to separate contaminating red blood cells from the tumor cells. Cell viability and cell amount were counted by trypan blue exclusion. Dissociated cells were plated at a density of 10^5 cells per well. ACTH-secreting corticotroph pituitary adenoma tissue from patients with Cushing's disease (n=2) was available after transsphenoidal surgery. Single-cell suspensions of the pituitary adenoma tissues were prepared as previously described in detail.
Owing to a limited number of cells obtained from the specimens, not all experiments were carried out in every primary culture.
as §1, §2

AtT20 cells = experiment: ACTH secretion corrected for cell amount in AtT20 cells; type: cell-based, mouse; details: Mus musculus, 168 h; AtT20, 7 days of treatment with 10 μM, corrected for cell amount; read-out: Maximal inhibition of ACTH secretion
Protocol: Human adrenocortical carcinoma HAC15 and mouse corticotroph AtT20 cells were used, purchased as a kind gift by Dr. W. Rainey, and obtained from Dr. J. Tooze (European Organization for Molecular Biology), respectively. Both cell lines were cultured in 75 cm^2 flasks at 37° C. in a humidified incubator (Greiner Bio-One, Alphen a/d Rijn, the Netherlands) at 5% CO2. Dulbecco's Modified Eagle Medium F12 containing 5% fetal calf serum was used for HAC15, whereas AtT20 cells were cultured in Dulbecco's minimal essential medium (DMEM) supplemented with 10% fetal calf serum. Both mediums were supplemented with L-glutamine (2 mmol/L) and penicillin (10^5 U/L). Short tandem repeat (str) profiling using a Powerplex Kit (Promega, Leiden, the Netherlands) of HAC15 and AtT20 gave results consistent with the ATCC database, confirming the identity of both cell lines. Medium and supplements were obtained from Invitrogen, Breda, the Netherlands. Once a week, cells were harvested with trypsin (0.05%)-EDTA (0.53 mM) and resuspended in culture medium. Levoketoconazole (COR-003) and racemic ketoconazole (both from Cortendo AB) were dissolved in absolute ethanol (EtOH), according to manufacturer's instructions, and stored at −20° C. at a stock concentration of […]. At the start of each experiment, both drugs were freshly prepared and diluted in EtOH in the correct concentrations. Synacten (synthetic ACTH, Novartis Pharma A.G.) stock concentration was stored at 4° C. and dissolved in culture medium at the day of use. The final concentrations of ACTH were chosen based on a dose-response curve in HAC15 cells and previously reported studies in the literature. For HAC15, 200,000 and 100,000 cells were plated in 0.5 ml medium in 24 well plates for experiments of 1 and 3 days, respectively. […]
At the end of the AtT20 and primary pituitary adenoma culture experiments, medium was collected and supplemented with 1% of the protease inhibitor Trasylol to prevent degradation of ACTH. ACTH was measured using a commercially available, nonisotopic automatic chemiluminescence system (DPC Immulite).

[2] = test system: ACTH independent hyperplasia cultures; experiment: Cortisol production in primary ACTH independent hyperplasia cultures; type: cell-based, human; details: 3 days
Protocol: as §3, with “ACTH-secreting corticotroph pituitary adenoma tissue from patients with Cushing's disease (n=2) was available after transsphenoidal surgery. Single-cell suspensions of the pituitary adenoma tissues were prepared as previously described in detail.” left out
Cortisol concentrations were measured in the supernatant using a chemiluminescence immunoassay system (Immulite 2000XPi; Siemens DPC Inc., Los Angeles, Calif., USA). In addition, we carried out multi-steroid analysis by liquid chromatography/mass spectrometry (LC/MS-MS) to accurately quantify androstenedione, corticosterone, cortisol, 11-deoxycortisol, DHEA, DHEAS, progesterone, 17-hydroxyprogesterone, and testosterone. […] Steroids were quantified with respect to a calibration series, with internal standards. Steroids were quantified on a Xevo TQS LC-MS/MS (Waters Chromatography).
Statistical analysis was performed using Graphpad Prism 6.0 (Graphpad Software, San Diego, CA). […] Effects of both compounds on the steroid profile were measured as absolute change compared to control and compared using the Student's t-test. […]

CC(=O)N1CCN(c2ccc(OCC3COC(Cn4ccnc4)(c4ccc(Cl)cc4Cl)O3)cc2)CC1 (racemic) [racemic ketoconazole, Ketoconazole]
total sum of decrease of steroids (HAC15 cells; HAC15, ACTH): −1,591 nmol/L | 11-DOC absolute change vs ACTH stimulation with vehicle (HAC15 cells; HAC15, ACTH, 3 days): -664.5 nmol/L | 11-DOC percentage change vs ACTH stimulation with vehicle (HAC15 cells; HAC15, ACTH, 3 days): (−22%****) | 17-OHP absolute change vs ACTH stimulation with vehicle (HAC15 cells; HAC15, ACTH, 3 days): -14.13 nmol/L | 17-OHP percentage change vs ACTH stimulation with vehicle (HAC15 cells; HAC15, ACTH, 3 days): (−29%***) | Androstenedione absolute change vs ACTH stimulation with vehicle (HAC15 cells; HAC15, ACTH, 3 days): -661.4 nmol/L | Androstenedione percentage change vs ACTH stimulation with vehicle (HAC15 cells; HAC15, ACTH, 3 days): (−40%*) | Corticosterone absolute change vs ACTH stimulation with vehicle (HAC15 cells; HAC15, ACTH, 3 days): -0.0125 nmol/L | Corticosterone percentage change vs ACTH stimulation with vehicle (HAC15 cells; HAC15, ACTH, 3 days): (−1.5%****) | Cortisol absolute change vs ACTH stimulation with vehicle (HAC15 cells; HAC15, ACTH, 3 days): -15.15 nmol/L | Cortisol percentage change vs ACTH stimulation with vehicle (HAC15 cells; HAC15, ACTH, 3 days): (−45%****) | DHEA absolute change vs ACTH stimulation with vehicle (HAC15 cells; HAC15, ACTH, 3 days): -17.04 nmol/L | DHEA percentage change vs ACTH stimulation with vehicle (HAC15 cells; HAC15, ACTH, 3 days): (−41%***) | DHEAS absolute change vs ACTH stimulation with vehicle (HAC15 cells; HAC15, ACTH, 3 days): -197.4 nmol/L | DHEAS percentage change vs ACTH stimulation with vehicle (HAC15 cells; HAC15, ACTH, 3 days): (−35%) | Prog absolute change vs ACTH stimulation with vehicle (HAC15 cells; HAC15, ACTH, 3 days): -0.9625 nmol/L | Prog percentage change vs ACTH stimulation with vehicle (HAC15 cells; HAC15, ACTH, 3 days): (−30%****) | Testosterone absolute change vs ACTH stimulation with vehicle (HAC15 cells; HAC15, ACTH, 3 days): -20.29 nmol/L | Testosterone percentage change vs ACTH stimulation with vehicle (HAC15 cells; HAC15, ACTH, 3 days): (−50%****) | 11-DOC absolute change vs control (HAC15 cells; HAC15, Basal, 3 days): -521.2 nmol/L | 11-DOC percentage change vs control (HAC15 cells; HAC15, Basal, 3 days): (−23%****) | 17-OHP absolute change vs control (HAC15 cells; HAC15, Basal, 3 days): -16.50 nmol/L | 17-OHP percentage change vs control (HAC15 cells; HAC15, Basal, 3 days): (−37%****) | Androstenedione absolute change vs control (HAC15 cells; HAC15, Basal, 3 days): -809.0 nmol/L | Androstenedione percentage change vs control (HAC15 cells; HAC15, Basal, 3 days): (−47%**) | Corticosterone absolute change vs control (HAC15 cells; HAC15, Basal, 3 days): +0.1750 nmol/l | Corticosterone percentage change vs control (HAC15 cells; HAC15, Basal, 3 days): (+19%****) | Cortisol absolute change vs control (HAC15 cells; HAC15, Basal, 3 days): -10.93 nmol/L | Cortisol percentage change vs control (HAC15 cells; HAC15, Basal, 3 days): (−47%****) | DHEA absolute change vs control (HAC15 cells; HAC15, Basal, 3 days): -39.50 nmol/L | DHEA percentage change vs control (HAC15 cells; HAC15, Basal, 3 days): (−56%**) | DHEAS absolute change vs control (HAC15 cells; HAC15, Basal, 3 days): -496.4 nmol/L | DHEAS percentage change vs control (HAC15 cells; HAC15, Basal, 3 days): (−44%*) | Prog absolute change vs control (HAC15 cells; HAC15, Basal, 3 days): -0.3125 nmol/L | Prog percentage change vs control (HAC15 cells; HAC15, Basal, 3 days): (−19%****) | Testosterone absolute change vs control (HAC15 cells; HAC15, Basal, 3 days): -25.78 nmol/L | Testosterone percentage change vs control (HAC15 cells; HAC15, Basal, 3 days): (−58%***) | total sum of decrease of steroids (HAC15 cells; HAC15, basal): −1,919 nmol/L | IC50 ([1]; CPA no. 2, basal condition): 266 nM | IC50 ([1]; CPA no. 3, basal condition): 138 nM | inhibition at 10 µM (AtT20 cells): 34% | IC50 inhibition of cortisol production ([2]; ACTH independent hyperplasia no. 1, basal condition): Ambiguous | IC50 ([2]; Homo sapiens, 72 h, ACTH independent hyperplasia no. 2, ACTH (85 μM) stimulated condition, read-out: IC50 inhibition of cortisol production): 1390 nM
